Assay in all cases: NCI-60 cell line screen, 48 h
The test system of test [1] is M14 melanoma.
In test [2] the test system is CCRF-CEM leukemia.
For test [3], the system named is HCC-2998 colon.
For test [4], the system named is SN12C renal.
Test [5] concerns COLO 205 colon.
The test system of test [6] is RPMI-8226 leukemia.
Test [7] relates to U251 CNS.
In test [8] the test system is UACC-62 melanoma.
The subject of test [9] is HL-60(TB) leukemia.
Test [10] concerns OVCAR-4 ovarian.

GI50 and TGI data for eleven compounds are collected here from PubChem BioAssay (NCI).

Each structure is given as a SMILES string.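 Results reflect a 48-hour exposure of cells in 96-well plates to compound at five concentrations. GI50: concentration for 50% inhibition of growth. The concentration for full growth arrest is given as TGI.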 Where a SMILES comes first, the peptide text is derived from it. [ ]: non-standard residue; d: D form. The star is where a group is joined. ξ: configuration not given here. 4Abz = Nc1ccc(C(=O)O)cc1; ξL = CC(C)CC(N)C(=O)O; NHOH = ON*

Regarding `COC(=O)C1=C(O)C(C(=O)OC)[C@@]2(O)[C@@H](C(=O)OC)C(c3ccccc3C(F)(F)F)C[C@@H]1[C@@H]2C(=O)OC` (some centres not stated), the GI50 in test [1] was 13.9 µM; in test [2] it was 2.13 µM; in test [3], 14.2 µM; in test [4], 4.33 µM; in [5], 0.175 µM; in test [6] it was 2.4 µM. Also, the GI50 in test [7] was 2.01 µM; in test [8] it was 4.09 µM. The TGI in test [1] is 47.4 µM; in test [2], 11.2 µM; in test [3], 27.2 µM; in [4], 15.2 µM; in test [5], 2.27 µM; in test [6] it was over 100 µM. Besides, the results for the TGI in [7] and in [8] were 7.28 µM and 15 µM, respectively.

`Cc1cccc2c1NC(c1c(C)[nH]c3ccccc13)C2` (configuration not stated): the TGI in test [1], in test [9], in test [2], in test [3], in test [4] and in test [5] was over 100 µM in each case. In addition, the TGI in [6], in test [7] and in test [8] was over 100 µM in each case.

On to `COc1ccc(OC)c(-c2cc(-c3ccc(Cl)cc3)nn2-c2ccc(S(N)(=O)=O)cc2)c1`, for which the GI50 in test [1] is 7.73 µM; in test [9], 14.3 µM; in [3], 7.51 µM; in [4], 14.5 µM; in test [6] it was 1.72 µM; in [8] it was 2.98 µM. Moreover, the TGI in [1] is 19.7 µM; in [9], over 100 µM; in [3] it was 21.6 µM; in [4], 28.2 µM; in test [6], 3.72 µM; in test [8], 12.1 µM.

In the case of `O=C1/C=C(/c2ccc(O)cc2)[C@H](O)Cc2ccc(OC3OC(CO)C(O)C(O)C3O)cc2O1` (some centres not stated) (tested in a mixture with another compound), the TGI in test [1], in [9], in test [4], in test [5], in [10] and in test [6] was over 100 µM in each case. The TGI in [7] and in test [8] was over 100 µM in each case.

Consider `NC(=O)c1ncn(C2CCC(CP(=O)(O)O)C2)c1N` (configuration not stated), for which the TGI in test [1], in [3], in test [4], in test [5], in [10] and in test [6] was over 100 µM each time. In addition, the TGI in test [7] and in test [8] was over 100 µM throughout.

With `CC(C)(C)NC(=O)C12C3C4C1C1C2C3C41I` (configuration not stated), the TGI in [9], in [2], in [3], in test [4], in test [5] and in [6] was over 100 µM in each case. In [7], the TGI is over 100 µM.

Take `COc1cc2c(cc1OC)[C@@H]1[C@H](C2=O)c2ccc([N+](=O)[O-])cc2C(=O)N1CCCBr`: the GI50 in test [1] was under 0.01 µM; in [2], under 0.01 µM; in [3], 2.66 µM; in [4] it was 0.277 µM; in test [10], 2.4 µM; in test [6], 0.145 µM. Moreover, the GI50 was 0.134 µM in [7] and under 0.046 µM in [8]. For the same compound, the TGI was 0.0139 µM in test [1]; over 100 µM in test [3]; 0.934 µM in test [4]; over 100 µM in test [10]; 1.87 µM in test [6]; 1.39 µM in test [7]. This compound returned a TGI in test [8] of 1.16 µM.

Consider `CC(=O)O/N=C1\C=Cc2c(no[n+]2[O-])C1=O`, for which the TGI in test [1] worked out at 33.2 µM; in test [2] it was 17.6 µM; in [3] it was 38.7 µM; in test [4], 32.9 µM; in test [5] it was 22 µM; in test [10], 31.5 µM. Further, the results for the TGI in [6] and in test [8] were 62 µM and 30.2 µM, respectively.

In the case of `N#CC1=C(N)NC(=S)NC1c1ccc(-c2ccc(-c3nc4ccccc4s3)cc2)o1` (configuration not stated), the GI50 in test [1] was 20.8 µM; in test [9], 30.7 µM; in test [4], over 50 µM; in test [5] it was 17.4 µM; in test [6] it was 32.8 µM; in test [7] it was 11.8 µM. In [8], the GI50 is 16.1 µM. For the same compound, the TGI was over 50 µM in [1]; over 50 µM in test [9]; over 50 µM in [4]; over 50 µM in [5]; over 50 µM in test [6]; 32.2 µM in [7]. Also, the TGI in test [8] is over 50 µM.

With `CC(C)CC(NC(=O)[C@@H]1CCCN1C(=O)CNC(=O)c1ccc(N)cc1)C(=O)N[C@H](C)C(=O)NO` (some centres not stated) (H-[4Abz]GP[ξL][dA]-{NHOH}), the GI50 in [1], in test [3], in [5], in [10], in [7] and in test [8] was over 100 µM each time. Further, the TGI in test [1], in test [3], in [5], in test [10], in [7] and in test [8] was over 100 µM each time.

`COc1cc(C2CC(c3ccc(C)cc3)=NN2C(C)=O)ccc1Oc1ccnc2cc(Cl)ccc12` (configuration not stated): the GI50 in [1], in [9], in [2], in test [3], in [4] and in [5] was over 100 µM in each case. Also, the GI50 in test [6] was over 100 µM; in [7], 1.41 µM; in [8], over 100 µM. The TGI in [1], in test [9], in test [2], in test [3], in test [4] and in test [5] was over 100 µM in each case. Besides, the TGI in test [6], in test [7] and in test [8] was over 100 µM each time.
